Data: US7355074B2, “Compounds having aromatic rings and side-chain amide-functionality and a method for transporting monovalent anions across biological membranes using the same” (The University of Maryland, priority 2003, dated 2008)

What was measured:
[1] = voltage-clamp experiments on black lipid membranes; assay type: biochemical
Protocol: FIG. 10(A) represents current events across a BLM in voltage clamp experiments after application of calixarene tetrabutylamide 2 ([…]). The voltage applied was −20 mV for all three recordings. (B) The distribution of conductance ranges observed in voltage clamp experiments with 2 acting as an ion channel.
The voltage-clamp assay was conducted using a setup with two chambers, each filled with an electrolyte solution and separated by a BLM. After voltage was applied across the membrane, a solution of 2 was added to one of the chambers. Subsequent current across the membrane was attributed to ion transport mediated by 2, since control experiments wit DMSO solvent were negative. The abrupt changes in current intensity (events) are consistent with an ion channel mechanism. The relatively long-lasting open states indicate that channels formed by calixarene tetrabutylamide 2 are stable.
Voltage-Clamp Experiments. […] Once calixarene tetrabutylamide 2 was incorporated into the lipid, the current through the membrane was recorded using both a chart recorder and directly digitized and stored as a computer file. The conductance values were calculated by dividing the current by the applied voltage. The events were grouped into conductance ranges of equal magnitude for the purpose of showing the distribution of recorded conductances.

[2] = 1H NMR binding experiment in CDCl3 with n-Bu4-NCl
Protocol: FIG. 7 illustrates a series of […] spectra (400 mHz, CDCl3, 22° C.) of calixarene tetrabutylamide in the presence of different species: (A) the compound alone (5 mm); (B) the compound with 1 equiv. of Bu4 NCl; (C) the compound after washing CDCl3 solution of the compound with an aqueous solution of 0.5 m HCl; (D) after washing CDCl3 solution of the compound with an aqueous solution of 0.5 M H2SO4.
To obtain evidence for Cl^− binding by 2, ^1H NMR experiments were run in CDCl3 using n-Bu4-NCl and HCl as Cl^− sources. Anion receptors usually show chemical shift perturbation upon anion complexation, particularly for amide NH protons that hydrogen bond to the anion. […] Calix[4]arene tetrabutylamide 2 does, however, bind HCl. Thus, shaking a CDCl3 solution of 2 with aqueous HCl led to disappearance of the amide NH proton and a significant upfield shift of the […] protons (FIG. 4c).

[3] = liposome potential assay with safranin O; assay type: biochemical
Protocol: FIG. 3 illustrates liposome potential assays. Suspension of EYPC LUVs in phosphate buffer was used (10 m M Nan H3-n PO4, n=1, 2, pH 6.4, 100 m M KCl or 75 m M Na2 H3-n PO4, n=1, 2, pH 6.4, 100 m M KCl or 75 m M NA2 SO4 inside and 100 m M NaCl, 60 nM safranin O, ex 480 nm, em 520 nm, outside). Legend for trace denotes the formation of potential in: —KCl vesicles upon application of valinmycin·Na2SO4 vesicles upon application of 3, —KCl vesicles upon application of 3, —Na2SO4 vesicles upon application of valinomycin.
Analysis of pH changes in the liposomes experiencing a CT gradient. a) Outwardly directed gradient of Cl:HPTS-loaded vesicles (100 μL of the stock solution), filled with a saline phosphate buffer (10 mM sodium phosphate, pH 6.4, 100 mM NaCl) were suspended in 1.9 mL of an isosmotic phosphate sulfate buffer (10 mM sodium phosphate, pH 6.0, 75 mM Na2SO4) and placed into a fluorimetric cell. The emission of HPTS at 510 nm was monitored with excitation wavelengths at 403 and 460 nm simultaneously. During the experiment, 20 μL of a 0-2 mM DMSO solution of the compound of interest was added through an injection port. Intravesicular pH values were obtained as described for pH-stat transport assays. At the end of experiment, the aqueous compartment of liposomes was equilibrated with extravesicular solution by lysis of liposomes with detergent (40 μL of 5% aqueous Triton X100). b) Inwardly directed gradient of Cl:HPTS-loaded vesicles (100 μL of the stock solution), filled with a isoosimomolar sulfate phosphate buffer (10 mM sodium phosphate, pH 6.0, 75 mM Na2SO4) were suspended in 1.9 mL of an isosmotic phosphate saline buffer (10 mM sodium phosphate, pH 6.4, 100 mM NaCl) and placed into a fluorimetric cell. Further analysis was conducted as described for the case of an outwardly directed gradient of […]. Analysis of the electrostatic potential on the surface of liposomes. LUVs (100 μL of stock solution, 100 mM KCl inside and outside or 75 mM Na2SO4 inside and outside) were suspended in 1.9 mL of 100 mM NaCl buffer containing 60 nM safranin O (a potential-sensitive dye). Safranin O emission was monitored at 580 nm with excitation at 520 nm. During the course of the experiment, 20 μL of a 0-0.12 mM DMSO solution of valinomycin or 0-2 mM of 3-8 DMSO solution was added. Experiments were completed by injection of 20 μL of 1 mM aqueous solution of the defect-inductive peptide melittin.

Row | Compound | stability of the channels (open states) [1] | centre of the conductance distribution ([1]; 480 events, 1 M KCl) [pS] | binding of the naked Cl− anion [2] | transmembrane potential formed ([3]; Na2SO4 inside, NaCl outside, safranin O outside, 1 mol %) | time to formation of the transmembrane potential ([3]; Na2SO4 inside, NaCl outside, 1 mol %) [min] | ability to create a transmembrane potential ([3]; Na2SO4 vesicles in NaCl buffer (conditions of the trimer)) | magnitude of the transmembrane potential ([3]; inwardly directed Cl− gradient, compared with valinomycin in liposomes with 100 mM KCl inside, 100 mM NaCl outside)
1 | CCCCNC(=O)COc1c2cccc1Cc1cccc(c1OCC(=O)NCCCC)Cc1cccc(c1OCC(=O)NCCCC)Cc1cccc(c1OCC(=O)NCCCC)C2 [calix[4]arene tetrabutylamide 2, Calix[4]arene tetrabutylamide] | stable | ~100 | does not bind strongly |  |  |  | 
2 | CCCCNC(=O)COc1ccccc1Cc1cccc(Cc2ccccc2OCC(=O)NCCCC)c1OCC(=O)NCCCC [trimer 3, Tris-(N-butyl-2-phenoxyacetamide)] |  |  |  | stable negative charge inside liposomes | ≤ 2 | created transmembrane potential | comparable to that generated by 0.12 mol % valinomycin
